Results reported in patent publication US20260306657A1, “LIPOSOME CONJUGATE TARGETING M2 MACROPHAGE AND USE THEREOF” (HANGZHOU NORMAL UNIVERSITY, priority 2022, published 2026).

Legend:
4T1 breast cancer cells = test: Cytotoxicity on 4T1 breast cancer cells (CCK-8 method); assay type: cell-based; settings: 24 h, CCK-8, n=3
Method: Cytotoxicity Studies of Tumor-Targeted Liposomes:
(1) The toxicity of ELE to 4T1 breast cancer cells was studied using a CCK-8 method. 4T1 cells (2×10^4 cells/well) were inoculated in a 96-well plate. After culturing for 24 h, the cells were treated with RMPI-1640 media containing ELE, ELE/Lipo, ELE/Lipo-AS1411, and FA-ELE/Lipo-AS1411 (drug concentrations being 10 μg/mL, 20 μg/mL, 40 μg/mL, 80 μg/mL, and 160 μg/mL, respectively) for 24 h. ELE was dissolved and diluted in medium containing 1% 0 ethanol, and untreated cells were used as a control. 100 μL of 10% CCK-8 solution was added into each well and incubated for 2 h. The absorbance at 450 nm was measured using an enzyme-labeled instrument, and the IC50 value of each drug group was calculated and analyzed using Graphpad9.0. A schematic diagram of the cytotoxicity of different concentrations of free ELE, ELE/Lipo, ELE/Lipo-AS1411, and FA-ELE/Lipo-AS1411 on 4T1 cells was shown in FIG. 5, where n=3, x±SD, ** P<0.01, *** P<0.001, **** P<0.0001 (vs. ELE); #P<0.05, ###P<0.001 (vs. ELE/Lipo-AS1411).

M2 macrophages = test: Cytotoxicity of ELE on M1 and M2 macrophages (CCK-8 method); assay type: cell-based; settings: 24 h, at 5 concentrations (10-160 μg/mL), * P<0.05, n=3
Method: (2) The toxicity of ELE on M1 and M2 macrophages was studied using the CCK-8 method. RAW264.7 cells were pre-treated to polarize into M1 and M2 macrophages, and the M1 and M2 macrophages (2×10^5 cells/well) were inoculated in a 96-well plate. After culturing for 24 h, the cells were treated with 100 μL of DMEM high-glucose media containing ELE (drug concentrations being 10 μg/mL, 20 μg/mL, 40 μg/mL, 80 μg/mL, and 160 μg/mL, respectively) for 24 h. ELE was dissolved and diluted in medium containing 1% % ethanol, and untreated cells were used as a control. 100 μL of 10% CCK-8 solution was added into each well and incubated for 2 h. The absorbance at 450 nm was measured using an enzyme-labeled instrument, and the IC 50 values of each group of drugs were calculated and analyzed using Graphpad Prism 9.0. A schematic diagram of the cytotoxicity of different concentrations of ELE on M1 and M2 macrophages is shown in FIG. 6, where n=3, x±SD, * P<0.05, *** P<0.001, **** P<0.0001.

Elemene
IC50 (4T1 breast cancer cells): 921.4 µg/mL
toxic effect on M2 macrophages (vs. M1 macrophages) (M2 macrophages): selective toxic effect on M2 macrophages
